# Source: PMC7044277 (Nature Communications, 2020)
# Several values for one entry are separate records, joined by “and”; a condition that tells them apart may be missing. Equal entries are not always repeated.
# How the values were obtained:
# Assay type in all cases: cell-based
# [1] = biological target: T1, 320 non-olfactory GPCRs (Homo sapiens, UniProt Q96LB1); conditions: receptor MRGPRX2; replicate values, Fig_4g
# T1 construct: expressed in transfected cells; host or cells: HTLA cells
# [2] = biological target: T2, 320 non-olfactory GPCRs (Homo sapiens, UniProt P49146); conditions: receptor NPY2R; replicate values, Fig_4g
# T2 construct: expressed in transfected cells; host or cells: HTLA cells
# [3] = biological target: 320 non-olfactory GPCRs (Homo sapiens, UniProt P41143); conditions: receptor OPRD1; replicate values, Fig_4g
# [4] = biological target: T3, 320 non-olfactory GPCRs (Homo sapiens, UniProt Q15761); conditions: receptor NPY5R; replicate values, Fig_4g
# T3 construct: expressed in transfected cells; host or cells: HTLA cells
# 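Further: fold over basal response of each receptor without drug.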
# T3 sequence (Q15761 whole entry): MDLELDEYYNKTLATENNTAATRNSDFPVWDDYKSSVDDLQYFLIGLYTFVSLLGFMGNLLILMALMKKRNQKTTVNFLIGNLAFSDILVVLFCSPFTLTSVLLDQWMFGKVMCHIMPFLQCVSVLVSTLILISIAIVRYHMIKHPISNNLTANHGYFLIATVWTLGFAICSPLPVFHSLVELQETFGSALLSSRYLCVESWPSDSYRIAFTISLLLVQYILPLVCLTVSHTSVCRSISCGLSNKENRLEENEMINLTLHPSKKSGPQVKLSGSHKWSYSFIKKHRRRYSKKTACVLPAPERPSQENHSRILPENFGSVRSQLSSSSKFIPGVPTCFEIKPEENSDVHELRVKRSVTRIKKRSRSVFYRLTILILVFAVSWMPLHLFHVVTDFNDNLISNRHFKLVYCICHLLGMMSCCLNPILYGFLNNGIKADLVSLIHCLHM
# T1 sequence (Q96LB1 whole entry): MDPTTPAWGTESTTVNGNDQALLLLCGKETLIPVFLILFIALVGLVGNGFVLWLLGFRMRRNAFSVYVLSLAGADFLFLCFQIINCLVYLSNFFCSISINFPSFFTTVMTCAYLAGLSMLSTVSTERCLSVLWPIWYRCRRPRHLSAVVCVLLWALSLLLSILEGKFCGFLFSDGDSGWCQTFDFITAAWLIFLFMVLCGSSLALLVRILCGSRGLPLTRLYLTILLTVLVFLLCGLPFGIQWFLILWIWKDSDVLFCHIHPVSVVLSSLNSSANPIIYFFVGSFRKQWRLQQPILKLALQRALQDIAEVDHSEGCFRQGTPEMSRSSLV
# T2 sequence (P49146 whole entry): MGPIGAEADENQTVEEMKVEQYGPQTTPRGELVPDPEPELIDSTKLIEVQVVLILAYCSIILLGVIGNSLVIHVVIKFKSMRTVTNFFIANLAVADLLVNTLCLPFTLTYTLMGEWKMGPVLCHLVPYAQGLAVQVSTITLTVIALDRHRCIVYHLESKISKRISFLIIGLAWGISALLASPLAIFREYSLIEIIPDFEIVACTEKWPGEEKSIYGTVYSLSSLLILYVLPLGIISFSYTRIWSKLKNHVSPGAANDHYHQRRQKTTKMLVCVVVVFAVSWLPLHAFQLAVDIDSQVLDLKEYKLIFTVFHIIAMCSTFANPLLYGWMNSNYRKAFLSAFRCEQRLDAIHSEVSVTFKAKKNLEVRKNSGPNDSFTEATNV
# Sequence of 320 non-olfactory GPCRs (Homo sapiens, UniProt P41143) (P41143 whole entry): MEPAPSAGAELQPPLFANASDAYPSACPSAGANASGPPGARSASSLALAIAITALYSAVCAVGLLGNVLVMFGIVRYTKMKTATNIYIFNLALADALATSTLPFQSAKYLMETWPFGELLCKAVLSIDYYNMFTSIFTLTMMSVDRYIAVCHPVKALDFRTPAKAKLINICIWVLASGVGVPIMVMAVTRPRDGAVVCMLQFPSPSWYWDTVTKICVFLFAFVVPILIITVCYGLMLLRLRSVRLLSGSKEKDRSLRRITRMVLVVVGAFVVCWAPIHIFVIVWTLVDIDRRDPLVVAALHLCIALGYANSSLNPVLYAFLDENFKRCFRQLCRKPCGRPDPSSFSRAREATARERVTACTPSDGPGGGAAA
compound,measurement,setting,value
CCOc1cccc2cc(C(C)NCC3(O)CCCCC3)oc12 (stereo not shown) [O4LE6],GPCRome agonism screen response,[1],1.268 and 1.306 and 1.279 and 0.9356
same,GPCRome agonism screen response,[2],0.7835 and 0.8337 and 0.6188 and 0.7117
same,GPCRome agonism screen response,[3],1.015 and 0.7396 and 0.6746 and 0.921
same,GPCRome agonism screen response,[4],1.549 and 1.454 and 1.619 and 1.735
